# Measurements from patent publication US20210188763A1, “COMPOUNDS AND METHODS FOR HEMATOPOIETIC REGENERATION” (The Regents of the University of California, priority 2017, published 2021).
# How the values were obtained:
# [1] = system: Rac1; experiment: Rac1 activation assay (G-LISA); format: cell-based; details: cells incubated 2 minutes at 1 and 10 μg/mL
# Method: Cell cultures were incubated with each tested compound for 2 minutes at concentrations of 1 and 10 μg/mL, after which the cells were tested for Rac1 activation using a G-LISA activation assay. The cells were lysed and the lysates introduced into wells containing Rac-GTP-binding protein, then sequentially incubated with anti-Rac1 antibody and a horseradish peroxidase-linked secondary antibody. The amount of horseradish peroxidase was then quantitated to evaluate the Rac1 activation potency of each compound studied.
# [2] = system: irradiated mice; experiment: Survival and HSC regeneration of irradiated mice; format: in vivo; details: for Survival of irradiated mice: lethal dose irradiation (750 cGy)
# Source text: (§1) A) CFU-GEMMs produced by TSF media vs. TSF+GJ001 (p=0.001). B) Percentage of BM KSL cells expressing Rac1GTP (p=0.008). C) Survival of mice irradiated with 750 cGy followed by treatment with DJ001 or vehicle (p=0.0007). D) % BM KSL cells (blue) and % ckit^+sca-1^−lin^− progenitors (gray) at day +21 in irradiated mice.
# 10 week old female C57BL/6 mice were irradiated with 750 cGy TBI, which is lethal for approximately 50% of C57BL/6 mice by day +30 (LD50/30), using a Shepherd Cesium-137 irradiator. Twenty four hours post-irradiation, mice were administered daily subcutaneous injections of 5 mg/kg DJ001 (or DJ009) or vehicle in a volume of 100 μL for 10 days. DJ001 injections were prepared in PBS, 0.5% Tween 80, and 10% DMSO. Corresponding vehicle injections contained PBS, 10% DMSO and 0.5% Tween 80. PB complete blood counts were measured using a Hemavet 950 instrument (Drew Scientific) at day +10 post-irradiation. For hematopoietic analysis, BM cells were collected at day +10 post-irradiation. To study whether DJ001 increased survival rates through activation of RAC signaling, the RAC inhibitor, EHT1864 (Selleckchem), was dissolved in PBS and administered intraperitoneally, 40 mg/kg every other day, to 750 cGy irradiated mice until day +10. For DJ009 studies, ten week old female C57BL/6 mice were irradiated with 550 cGy TBI and then given daily subcutaneous injections of 5 mg/kg of DJ009 or vehicle in a volume of 100 μL for 3 days. DJ009 injections were prepared in PBS, 0.5% Tween 80, and 10% DMSO. Vehicle injections contained 10% DMSO and 0.5% Tween 80. At day +3 post 550 cGy irradiation, we collected PB and BM cells for CBCs and hematopoietic analysis. Exemplary results of this assay are depicted in FIG. 8 and FIG. 17.
# [3] = biological target: T1, PTPRS (Homo sapiens, UniProt Q13332); experiment: In vitro phosphatase assay (modified Malachite Green Assay); format: biochemical; details: substrate titration of PTPσ; Vmax inhibited, Km constant
# T1 construct: The two interacellular catalytic domains (D1D2) of PTPRS were cloned into a pET28a vector; made in house; host or cells: E. coli BL21
# T1 sequence (Q13332 1304-1948 limits assumed): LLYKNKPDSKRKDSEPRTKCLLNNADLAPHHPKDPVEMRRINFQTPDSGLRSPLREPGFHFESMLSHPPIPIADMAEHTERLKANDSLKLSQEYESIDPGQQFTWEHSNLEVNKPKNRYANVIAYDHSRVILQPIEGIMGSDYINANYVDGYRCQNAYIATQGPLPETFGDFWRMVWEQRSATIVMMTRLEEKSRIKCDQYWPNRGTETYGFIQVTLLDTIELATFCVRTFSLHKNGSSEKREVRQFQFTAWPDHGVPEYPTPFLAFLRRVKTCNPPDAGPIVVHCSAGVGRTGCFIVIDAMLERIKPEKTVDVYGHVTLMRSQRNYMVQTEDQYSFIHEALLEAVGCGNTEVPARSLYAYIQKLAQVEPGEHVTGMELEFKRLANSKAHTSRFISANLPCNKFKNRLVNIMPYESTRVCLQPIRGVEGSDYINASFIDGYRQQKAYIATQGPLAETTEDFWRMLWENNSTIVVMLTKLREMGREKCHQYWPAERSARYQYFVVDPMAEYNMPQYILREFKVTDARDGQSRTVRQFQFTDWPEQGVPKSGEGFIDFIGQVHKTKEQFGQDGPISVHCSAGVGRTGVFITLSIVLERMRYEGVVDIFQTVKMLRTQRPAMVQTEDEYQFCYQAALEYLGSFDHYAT
# Method: The two interacellular catalytic domains (D1D2) of PTPRS were cloned into a pET28a vector and overexpressed in E. coli BL21 and purified as described in Jeon T J, et al. Structure of the Catalytic Domain of Protein Tyrosine Phosphatase Sigma in the Sulfenic Acid Form. Molecules and Cells. 2013; 36(1):55-61. doi:10.1007/s10059-013-0033-x. Enzymatic activity of PTPRS was assayed using a modified version of the Malachite Green Assay (described in Lorenz U. Protein Tyrosine Phosphatase Assays. Current protocols in immunology/edited by John E Coligan. [et al]. 2011; CHAPTER: Unit-11.7. doi:10.1002/0471142735.im1107s93) and the Tyrosine Phosphatase Assay Kit (Promega Coorperation). Unless stated otherwise, standard assays were carried out using 50 nM PTPRS protein in 1× Buffer (10 mM Tris, 5 mM MgCl2, 10 mM NaCl, 0.02% Tween) and Tyr Phosphopeptide as substrate (100 uM for FIG. 1 and 50-1200 uM in FIG. 2). […]
# For IC50 determination, rates normalized relative to uninhibited controls (DMSO) were plotted against compound concentration and fitted using a four-parameter nonlinear regression curve fit ((y=[(A−D)(1+{xC−1}B)−1]+D), (Prism 6.0, Graphpad Software). For mechanism studies and determination of the enyzme's Km and Vmax, data were analyzed using a nonlinear regression fit according to classical Mechaelis-Menten kinetics model Y=Vmax*X/(Km+X) (Prism 6.0, Graphpad Software).
# [4] = system: Rac1; experiment: Rac1 signaling in HSCs (BM KSL cells expressing Rac1GTP); format: cell-based
# Method: as §1
# Intracellular flow cytometric analysis was performed on irradiated (300 cGy) or non-irradiated, sorted KSL cells after treatment with 1 μg/mL DJ001 or control (equal volumes of DMSO) for 24 hours. At 24 hours after irradiation, cells were fixed with 4% PFA for 10 min, followed by permeabilization using 0.25% saponin in PBS. Cells were washed again and stained with antibody at the recommended concentrations for 30 minutes at room temperature. Intracellular antibodies and phospho-flow antibodies used were: FITC-conjugated anti-BCL-XL (Abcam #ab26148), active RAC1-GTP antibody (NewEast Biosciences #26903), and anti-PAK1 (phospho S144)+PAK2 (phospho S141)+PAK3 (phospho S154) antibody (Abcam #ab40795).
# [5] = system: hematopoietic colony formation; experiment: Hematopoietic colony formation (CFC assay); format: cell-based
# Method: CFC assays (colony-forming unit-granulocyte monocyte (CFU-GM), burst-forming unit-erythroid (BFU-E), and colony-forming unit-granulocyte erythroid monocyte megakaryocyte (CFU-GEMM) were performed using MethoCult GF M3434 (Stemcell Technologies), as we have previously described^1,5. For all in vitro assays, BM CD34^−KSL cells, KSL cells, and Lin cells were cultured in TSF media (IMDM, 10% FBS, 1% pen-strep, 20 ng/mL recombinant mouse Thrombopoietin (TPO), 125 ng/mL recombinant mouse Stem Cell Factor (SCF), 50 ng/mL recombinant mouse Flt3 ligand) and treated as described. Recombinant mouse SCF, Flt-3 ligand, and TPO were purchased from R&D Systems. For competitive repopulation assays, BM cells were isolated from donor 10-12 week old female CD45.2^+ mice. Recipient 10 week old female CD45.1^+ B6.SJL mice were irradiated with 950 cGy TBI using a Cs137 irradiator, and donor BM cells were administered via tail vein injection along with a competing dose of 1×10^5 non-irradiated host BM cells. Multilineage donor hematopoietic cell engraftment was measured in the PB by flow cytometry.
SMILES,Rac1 Activation [1],other results
"O=C(/C=C\Nc1cccc([N+](=O)[O-])c1)c1ccccc1 [DJ001, (Z)-3-((3-nitrophenyl)amino)-1-phenylprop-2-en-1-one]",yes,HSC regeneration in irradiated mice ([2]; irradiated mice): accelerates HSC regeneration; Survival of irradiated mice [2]: dramatically increases mice survival; Mechanism of inhibition [3]: classical noncompetitive inhibitor; Rac1 signaling in HSCs [4]: activates Rac1 signaling
O=C(/C=C\Nc1cccc(F)c1)c1ccccc1 [DJ002],no,–
O=C(/C=C\Nc1cccc(C(F)(F)F)c1)c1ccccc1 [DJ003],yes,Survival of irradiated mice [2]: improves survival of irradiated mice; Hematopoietic colony formation [5]: increases hematopoietic colony formation
Cc1cccc(N/C=C\C(=O)c2ccccc2)c1 [DJ004],yes,–
COc1cccc(N/C=C\C(=O)c2ccccc2)c1 [DJ005],no,–
CC(=O)c1cccc(N/C=C\C(=O)c2ccccc2)c1 [DJ006],no,–
O=C(/C=C\Nc1cccc(-c2ccccc2)c1)c1ccccc1 [DJ007],no,–
CN(C)c1cccc(N/C=C\C(=O)c2ccccc2)c1 [DJ008],no,–
"O=C(/C=C\Nc1cc(F)cc(F)c1)c1ccccc1 [DJ009, (Z)-3-((3,5-difluorophenyl)amino)-1-phenylprop-2-en-1-one]",yes,–
Cc1cc(C)cc(N/C=C\C(=O)c2ccccc2)c1 [DJ011],yes,–
COc1cc(N/C=C\C(=O)c2ccccc2)cc(OC)c1 [DJ012],yes,–
O=C(/C=C\Nc1ccccc1)c1ccccc1 [DJ013],yes,–
CC(C)(C)[Si](C)(C)Oc1cccc(N/C=C\C(=O)c2ccccc2)c1 [DJ014],yes,–
O=C(/C=C\Nc1cccc(O)c1)c1ccccc1 [DJ015],yes,–
CN(C)S(=O)(=O)c1cccc(N/C=C\C(=O)c2ccccc2)c1 [DJ016],no,–
CCCCN/C=C\C(=O)c1ccccc1 [DJ017],no,–
O=C(/C=C\NCc1ccco1)c1ccccc1 [DJ018],no,–
CC(C)(C)N/C=C\C(=O)c1ccccc1 [DJ019],no,–
